Patent US20250066358A1, “Inhibitors of Menin-MLL Interaction” (Bala Therapeutics, Inc., priority 2021, published 2025)

Experiments:
[1] = target: T1, recombinant MEN1 protein and fluorescein-labeled MLL4-43 peptide (Homo sapiens, UniProt O00255); assay: Primary fluorescence polarization assay of MEN1 / MLL4-43 interaction inhibition; assay type: binding; details: MEN1 10 nM, MLL4-43 0.5 nM, 1 hour at room temperature
T1 construct: purchased Creativebiomart MEN1-35H
T1 sequence (O00255 1-610): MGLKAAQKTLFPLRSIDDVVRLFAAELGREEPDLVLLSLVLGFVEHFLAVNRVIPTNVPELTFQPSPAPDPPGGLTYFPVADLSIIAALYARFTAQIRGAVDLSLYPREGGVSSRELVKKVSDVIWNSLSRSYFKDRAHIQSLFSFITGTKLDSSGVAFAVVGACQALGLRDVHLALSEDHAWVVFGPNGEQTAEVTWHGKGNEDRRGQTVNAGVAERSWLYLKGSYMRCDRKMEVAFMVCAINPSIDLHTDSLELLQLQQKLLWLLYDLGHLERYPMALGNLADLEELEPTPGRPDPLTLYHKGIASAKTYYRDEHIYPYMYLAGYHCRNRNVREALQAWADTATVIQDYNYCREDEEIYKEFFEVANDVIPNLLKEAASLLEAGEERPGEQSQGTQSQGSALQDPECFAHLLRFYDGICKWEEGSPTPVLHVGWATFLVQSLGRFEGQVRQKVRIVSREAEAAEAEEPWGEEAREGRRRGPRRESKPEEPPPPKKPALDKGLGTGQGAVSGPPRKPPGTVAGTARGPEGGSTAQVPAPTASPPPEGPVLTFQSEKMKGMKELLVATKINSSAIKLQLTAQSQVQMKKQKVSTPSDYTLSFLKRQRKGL
Description: Compound activity was determined using recombinant MEN1 protein (Creativebiomart, Cat #MEN1-35H) and a custom fluorescein-labeled MLL4-43 peptide (Eton Bioscience Inc.). Interaction between MEN1 and MLL4-43 in the presence of compounds was determined by fluorescence polarization assay using a Microplate Reader ClarioStar Plus. The reaction was carried out in assay buffer (50 mM TRIS-HCl PH 7.4-7.6, 50 mM NaCl, 1 mM DTT, 0.1 mg/ml BSA). The compounds were dispensed on a 384 well Diamond Well Plate (Axigen, Cat #P-384-120 SQ-C—S) using the Biomek FX liquid handling system at 100× solutions of compounds in DMSO. 2× MEN1 mix (final concentration of MEN1 10 nM) was prepared in Assay buffer and 10 μl of mixture per well was added into 384w white Reaction plate with NBS(Corning, Cat #4513). 10 μl of Assay buffer w/o MENI was used for negative control. Plates were centrifuged for 1 min at 100 g. Next step the Compounds were added to Reaction plate using Biomek station via following steps: 3 μl of 100× compounds (in DMSO) were mixed thoroughly with 27 μl Assay Buffer, then 2 μl of this mixture was added to Reaction plate with 10 μl of MENI mix. Plates were centrifuged for 1 min at 100 g and incubated for 20 min at room temperature. Next 8 μL of MLL4-43 peptide per well was added to final concentration of MLL 0.5 nM. Plates were incubated for 1 hour at room temperature. Then fluorescence polarization was measured using Microplate Reader.

MV4-11 = MV4-11 Cellular Growth Inhibition Assay (CellTiter-Glo); assay type: cell-based; details: Homo sapiens, 168 h, MV4-11 cells, 7 days of incubation
Description: (§1) HEK293 (Institute of Cytology Russian Academy of Science), MV4-11 (ATCC, CRL-9591), MOLM-13 (AcceGen, ABC-TC517S) were seeded at a density of 500 cells per well (HEK293) and 2000 cells per well (MV4-11, MOLM-13) in a 384-well clear bottom plate (Greiner Cat #781090) in 45 μl total volume of DMEM (PanEco, Cat #C420, Russia) or RPMI (PanEco, Cat #C330, Russia) with 10% FBS(HyClone Cat #SV30160.03). HEK293 were allowed to adhere overnight at 37° C., 5% CO2. 500× compounds solutions in DMSO (Sigma Cat #D2650) were prepared into Cmpnds plate (Diamond Well Plate, Axigen, Cat #P-384-120 SQ-C—S) and DMSO only control was included. 1 μl of 500× compounds (Cmpnds plate) was added to 49 μl of culture medium into Dilution plate (Diamond Well Plate, Axigen, Cat #P-384-120 SQ-C—S), mixed and then 5 μl of 10× compounds solutions were transferred to cells followed by centrifugation at 100 g for 1 min. Final DMSO concentration was 0.2%. After 3 days of incubation, 10 μl of 1× compounds were added to cells. After 7 days of incubation, 12 μl of CellTiter-Glo (Promega, CAT #G7572) were added to the cells, plate was centrifuged at 100 g for 1 min and luminescence signal was measured using Microplate Reader (CLARIOStar).

MOLM-13 = MOLM-13 Cellular Growth Inhibition Assay (CellTiter-Glo); assay type: cell-based; details: Homo sapiens, 168 h, MOLM-13 cells, 7 days of incubation
Description: as §1

[2] = HEK293 Cellular Growth Inhibition Assay (CellTiter-Glo); assay type: cell-based; details: human, HEK293 cells, 7 days of incubation
Description: as §1

Row | SMILES | EC50 [1] [nM] | CC50 (MV4-11) [nM] | CC50 (MOLM-13) [µM] | CC50 at 7 days [2] [µM]
1 | CCS(=O)(=O)Nc1ccc(CN2CCC3(CC2)CN(c2ncnc4ccccc24)C3)cc1 [Compound 21, N-(4-((2-(quinazolin-4-yl)-2,7-diazaspiro[3.5]nonan-7-yl)methyl)phenyl)ethanesulfonamide] | > 5000 | – | – | –
2 | CCS(=O)(=O)Nc1ccc(CN2CCC3(CC2)CN(c2ncnc4ccc(CC(F)(F)F)cc24)C3)cc1OCC(C)N1CCN(S(C)(=O)=O)CC1 (racemic) [Compound 70, rac-(R)-N-(2-(2-(4-(methylsulfonyl)piperazin-1-yl)propoxy)-4-((2-(6-(2,2,2-trifluoroethyl)quinazolin-4-yl)-2,7-diazaspiro[3.5]nonan-7-yl)methyl)phenyl)ethanesulfonamide] | > 5000 | 2500 to 5000 | 5 to 10 | 15 to 30
3 | FC(F)(F)Cc1ccc2ncnc(N3CC4(CCN(Cc5ccc6cc[nH]c6c5)CC4)C3)c2c1 [Compound 89, 4-(7-((1H-indol-6-yl)methyl)-2,7-diazaspiro[3.5]nonan-2-yl)-6-(2,2,2-trifluoroethyl)quinazoline] | ≤ 75 | ≤ 1000 | 1 to 5 | ≤ 5
4 | CCS(=O)(=O)N[C@H]1CC[C@H](CN2CCC3(CC2)CN(c2ncnc4ccc(CCc5ccccc5)cc24)C3)CC1 [Compound 51, N-((1R,4R)-4-((2-(6-phenethylquinazolin-4-yl)-2,7-diazaspiro[3.5]nonan-7-yl)methyl)cyclohexyl)ethanesulfonamide] | 500 to 1000 | 2500 to 5000 | 5 to 10 | 5 to 15
5 | CCS(=O)(=O)NC1CCc2cc(CN3CCC4(CC3)CN(c3ncnc5ccc(CC(F)(F)F)cc35)C4)cc(F)c2C1 (racemic) [Compound 77, rac-(R)-N-(8-fluoro-6-((2-(6-(2,2,2-trifluoroethyl)quinazolin-4-yl)-2,7-diazaspiro[3.5]nonan-7-yl)methyl)-1,2,3,4-tetrahydronaphthalen-2-yl)ethanesulfonamide] | 1000 to 5000 | – | – | –
6 | CCS(=O)(=O)Nc1ccc(CN2CCC3(CC2)CN(c2nc(NC)nc4ncccc24)C3)cc1 [Compound 31] | > 5000 | – | – | –
7 | CCS(=O)(=O)N1CCc2ccc(CN3CCC4(CC3)CN(c3ncnc5ccc(CC(F)(F)F)cc35)C4)cc2C1 [Compound 111, 4-(7-((2-(ethylsulfonyl)-1,2,3,4-tetrahydroisoquinolin-7-yl)methyl)-2,7-diazaspiro[3.5]nonan-2-y1)-6-(2,2,2-trifluoroethyl)quinazoline] | 1000 to 5000 | – | – | –
8 | CCS(=O)(=O)N[C@H]1CC[C@H](CN2CCC3(CC2)CCN(c2ncnc4cc(CC(F)(F)F)ccc24)CC3)CC1 [Compound 4, N-((1R,4R)-4-((9-(7-(2,2,2-trifluoroethyl)quinazolin-4-yl)-3,9-diazaspiro[5.5]undecan-3-yl)methyl)cyclohexyl)ethanesulfonamide] | 1000 to 5000 | – | – | –
9 | CCS(=O)(=O)Nc1cccc(CN2CCC3(CC2)CN(c2ncnc4ccccc24)C3)c1 [Compound 23, N-(3-((2-(quinazolin-4-yl)-2,7-diazaspiro[3.5]nonan-7-yl)methyl)phenyl)ethanesulfonamide] | > 5000 | – | – | –
10 | c1ccc(CCc2ccc3ncnc(N4CC5(CCNCC5)C4)c3c2)cc1 [Compound P148, 4-(2,7-Diazaspiro[3.5]non-2-yl)-6-(2-phenylethyl)quinazoline] | > 5000 | – | – | –
11 | CCS(=O)(=O)N[C@H]1CC[C@H](CN2CCC3(CC2)CN(c2ncnc4ccc(CCc5nc(C)no5)cc24)C3)CC1 [Compound 63, N-((1R,4R)-4-((2-(6-(2-(3-methyl-1,2,4-oxadiazol-5-yl)ethyl)quinazolin-4-yl)-2,7-diazaspiro[3.5]nonan-7-yl)methyl)cyclohexyl)ethanesulfonamide] | 1000 to 5000 | – | – | –
12 | CCS(=O)(=O)N1CCc2cc(CN3CCC4(CC3)CN(c3ncnc5ccc(CC(F)(F)F)cc35)C4)ccc2C1 [Compound 110, 4-(7-((2-(ethylsulfonyl)-1,2,3,4-tetrahydroisoquinolin-6-yl)methyl)-2,7-diazaspiro[3.5]nonan-2-yl)-6-(2,2,2-trifluoroethyl)quinazoline] | 75 to 500 | – | – | –

Second part, led by results:

Row | EC50 [1] [nM] | SMILES | CC50 (MV4-11) [nM] | CC50 (MOLM-13) [µM] | CC50 at 7 days [2] [µM]
13 | 75 to 500 | CCS(=O)(=O)N[C@H]1CC[C@H](CN2CCC3(CC2)CN(c2ncnc4ccc(CC(C)c5ccccc5)cc24)C3)CC1 (mixture of isomers) [Compound 59, N-((1R,4R)-4-((2-(6-((RS)-2-phenylpropyl)quinazolin-4-yl)-2,7-diazaspiro[3.5]nonan-7-yl)methyl)cyclohexyl)ethanesulfonamide] | ≤ 1000 | ≤ 1 | ≤ 5
14 | > 5000 | CCS(=O)(=O)Nc1ccc(CN2CCC3(CC2)CCN(c2ncnc4cc(CC(F)(F)F)ccc24)CC3)cc1 [Compound 2] | > 10000 | – | 15 to 30
15 | 75 to 500 | CCS(=O)(=O)N1Cc2ccc(CN3CCC4(CC3)CN(c3ncnc5ccc(CC(F)(F)F)cc35)C4)cc2C1 [Compound 94, 4-(7-((2-(ethylsulfonyl)isoindolin-5-yl)methyl)-2,7-diazaspiro[3.5]nonan-2-yl)-6-(2,2,2-trifluoroethyl)quinazoline] | 2500 to 5000 | 5 to 10 | 5 to 15
16 | > 5000 | CCS(=O)(=O)Nc1ccc(CN2CCC3(CC2)CN(c2ncnc4ncccc24)C3)cc1 [Compound 24, N-[4-[(2-pyrido[2,3-d]pyrimidin-4-yl-2,7-diazaspiro[3.5]nonan-7-yl)methyl]phenyl]ethanesulfonamide] | – | – | –
17 | > 5000 | CCS(=O)(=O)Nc1ccc(CN2CCC(Nc3ncnc4cc(CC(F)(F)F)ccc34)CC2)cc1 [Compound 33, N-(4-((4-((7-(2,2,2-trifluoroethyl)quinazolin-4-yl)amino)piperidin-1-yl)methyl)phenyl)ethanesulfonamide] | – | – | –
18 | 1000 to 5000 | N#Cc1cc(CN2CCC3(CC2)CN(c2ncnc4ccc(CC(F)(F)F)cc24)C3)ccc1F [Compound 102, 2-fluoro-5-((2-(6-(2,2,2-trifluoroethyl)quinazolin-4-yl)-2,7-diazaspiro[3.5]nonan-7-yl)methyl)benzonitrile] | – | – | –
19 | > 5000 | CCS(=O)(=O)Nc1ccc(CN2CCC3(CC2)CN(c2ncnc4ccc(CC(F)(F)F)cc24)C3)cc1C(=O)NCCN1CCOCC1 [Compound 92, 2-(ethylsulfonamido)-N-(2-morpholinoethyl)-5-((2-(6-(2,2,2-trifluoroethyl)quinazolin-4-yl)-2,7-diazaspiro[3.5]nonan-7-yl)methyl)benzamide] | – | – | –
20 | 1000 to 5000 | CCN(C[C@H]1CC[C@H](NS(=O)(=O)CC)CC1)c1ccc(CN2CCC3(CC2)CN(c2ncnc4ccc(CC(F)(F)F)cc24)C3)cc1 [Compound 100, N-((1R,4R)-4-((ethyl(4-((2-(6-(2,2,2-trifluoroethyl)quinazolin-4-yl)-2,7-diazaspiro[3.5]nonan-7-yl)methyl)phenyl)amino)methyl)cyclohexyl)ethanesulfonamide] | – | – | –
